Test results from patent publication US7723358B2, “Aroyl-O-piperidine derivatives for the treatment of diabetes-related problems” (Merck Patent GmbH, priority 2004, dated 2010).

Each compound was assayed against T1, microsomal triglyceride transfer protein (MTP) (Mesocricetus auratus, UniProt P55158) (assay: Inhibition of MTP activity: transfer of [3H]-triolein from donor liposomes to biotinylated LDL, SPA). Conditions: MTP from golden hamster liver; incubation 18-24 hours at 37° C.; read-out: IC50, concentration that allows a 50% inhibition of MTP.
T1 construct: The supernatant comprising the soluble MTP is dialysed against Tris/HCl 150 mM; from tissue; host or cells: golden hamster liver microsomes, deoxycholate-solubilised supernatant, dialysed
T1 sequence (P55158 19-895): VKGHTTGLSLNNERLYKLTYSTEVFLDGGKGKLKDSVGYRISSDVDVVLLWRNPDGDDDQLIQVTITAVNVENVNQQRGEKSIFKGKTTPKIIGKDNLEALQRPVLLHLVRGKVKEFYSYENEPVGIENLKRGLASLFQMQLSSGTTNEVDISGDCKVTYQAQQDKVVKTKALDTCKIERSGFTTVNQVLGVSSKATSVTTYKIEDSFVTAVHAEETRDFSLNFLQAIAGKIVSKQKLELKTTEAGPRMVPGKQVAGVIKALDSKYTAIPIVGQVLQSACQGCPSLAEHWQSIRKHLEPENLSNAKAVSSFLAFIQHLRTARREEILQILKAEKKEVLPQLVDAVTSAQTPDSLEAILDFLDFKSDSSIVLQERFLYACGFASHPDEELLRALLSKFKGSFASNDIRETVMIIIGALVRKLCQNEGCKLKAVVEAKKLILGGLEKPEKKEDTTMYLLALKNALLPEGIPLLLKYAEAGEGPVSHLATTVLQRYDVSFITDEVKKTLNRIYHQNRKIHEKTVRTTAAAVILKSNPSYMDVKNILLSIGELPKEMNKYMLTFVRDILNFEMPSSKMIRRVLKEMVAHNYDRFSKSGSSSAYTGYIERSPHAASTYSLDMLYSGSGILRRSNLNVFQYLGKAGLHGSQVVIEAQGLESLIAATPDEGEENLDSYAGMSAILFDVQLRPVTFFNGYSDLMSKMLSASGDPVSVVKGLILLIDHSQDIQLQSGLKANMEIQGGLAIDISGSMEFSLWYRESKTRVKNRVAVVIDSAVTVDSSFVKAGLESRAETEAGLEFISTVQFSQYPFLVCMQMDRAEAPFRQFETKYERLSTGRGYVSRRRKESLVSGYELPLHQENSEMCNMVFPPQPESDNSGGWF
Format: biochemical
Experimental: Analysis of the Inhibition of MTP Activity
The inhibition of the activity of microsomal triglyceride transfer protein (MTP) was tested by using the following operating protocol.
The inhibition of MTP activity with a compound can be quantified by observing the inhibition of the transfer of a labelled triglyceride, from a donor particle to an acceptor particle, in the presence of MTP. The procedure for the preparation of MTP is based on the method by Wetterau and Zilversmit (Biochem. Biophys. Acta (1986) 875, 610). A few grams of golden hamster liver are taken and then rinsed several times in a 250 mM sucrose solution at 0° C. All the following steps proceed at +4° C. A homogenate at a concentration of 50% in 250 mM sucrose is prepared using a Teflon mill and then centrifuged for 10 minutes at 10 000×g at +4° C. The supernatant is then centrifuged at 105 000×g for 75 minutes at +4° C. The supernatant is discarded and the microsomal pellet is taken up in 3 ml (per g of starting liver) of Tris/HCl 150 mM pH 8.0. 1-ml aliquot fractions are stored at −80° C. until the time of use.
After thawing a fraction of microsomes (1 ml), 12 ml of refrigerated Tris/HCl 50 mM, KCl 50 mM, MgCl2 5 mM pH 7.4 buffers and 1.2 ml of deoxycholate (0.54% in water) are added. After incubation for 30 minutes at +4° C. with gentle agitation, the suspension is centrifuged at 105 000×g for 75 minutes. The supernatant comprising the soluble MTP is dialysed against Tris/HCl 150 mM, NaCl 40 mM, EDTA 1 mM, 0.02% sodium azide pH 7.4 buffer (5 times one litre over 2-3 days). The MTP is stored at +4° C., is stable for at least 30 days and is used in unmodified form in the test.
The donor particles (liposomes) are prepared from 208 μl of L-phosphatidylcholine at a concentration of 10 mg/ml in chloroform, and 480 μl of [3H]-triolein at a concentration of 0.5 mCi/ml in toluene. After stirring, the solution is evaporated under nitrogen, taken up in 6 ml of Tris/HCl 50 mM, KCl 50 mM, MgCl2 5 mM pH 7.4 buffer and incubated in an ultrasound bath for 30 minutes at room temperature. The liposomes are stored at +4° C. and sonicated again for 10 minutes before each use.
The acceptor particles are biotinylated low density lipoproteins (LDL-biot). These particles are supplied by the company Amersham.
The reaction mixture is prepared in untreated ½ well white plates (Corning Costar) by addition, in the following order, of: 5 μl of HEPES 50 mM, NaCl 150 mM, BSA 0.1% (w/v), 0.05% sodium azide (w/v), pH 7.4 buffer; 5 μl of liposome; 5 μl of LDL-biot; 5 μl of test products in DMSO; 5 μl of MTP. After incubation for 18-24 hours at 37° C., the reaction is stopped by adding 100 μl of Amersham SPA (Scintillation Proximity Assay) beads coupled to streptavidin, and the radioactivity is counted using a Top Count (Packard) machine at least one hour later. The inhibition of the transfer of the triglycerides with a compound is reflected by a reduction in the transferred radioactivity.
The results are expressed in terms of the IC50, i.e. the concentration that allows a 50% inhibition of MTP.

First: COc1ccc(CC(=O)N2CCC(Oc3cccc(NC(=O)c4ccccc4-c4ccc(OC(F)(F)F)cc4)c3)CC2)cc1OC [Example 110, N-[3-[[1-[2-(3,4-dimethoxyphenyl)acetyl]-4-piperidinyl]oxy]phenyl]-4′-(trifluoro-methoxy)[1,1′-biphenyl]-2-carboxamide]
Second: COc1ccc(C(=O)N2CCC(Oc3cccc(NC(=O)c4ccccc4-c4ccc(OC(F)(F)F)cc4)c3)CC2)cc1OC [Example 104]
The IC50 of the first is 1.6-fold higher: 469 nM for the first, 294 nM for the second.

Compared with `CC(C)(C)OC(=O)N1CCC(Oc2cccc(NC(=O)c3ccccc3-c3ccc(OC(F)(F)F)cc3)c2)CC1` [Example 67, 1,1-dimethylethyl 4-[3-[[[4′-(trifluorometh-oxy)[1,1′-biphenyl]-2-yl]carbonyl]amino]-phenoxy]-1-piperidinecarboxylate], `Cc1cccc(C(=O)Nc2cccc(OC3CCN(C(=O)OC(C)(C)C)CC3)c2)c1-c1ccc(OC(F)(F)F)cc1` [Example 1, 1,1-dimethylethyl 4-[3-[[[6-methyl-4′-(trifluoromethoxy)[1,1′-biphenyl]-2-yl]carbonyl]amino]phenoxy]-1-piperidine-carboxylate] is 1.8-fold higher in IC50: 234 nM for the first, 421 nM for the second. The first is the more potent here.

`O=C(Nc1cccc(OC2CCN(C(=O)c3ccc([N+](=O)[O-])cc3)CC2)c1)c1ccccc1-c1ccc(OC(F)(F)F)cc1` [Example 112, N-[3-[[1-(4-nitrobenzoyl)-4-piperidinyl]-oxy]phenyl]-4′-(trifluaromethoxy)[1,1′-biphenyl]-2-carboxamide] and `COc1ccc(C(=O)N2CCC(Oc3cccc(NC(=O)c4ccccc4-c4ccc(OC(F)(F)F)cc4)c3)CC2)cc1` [Example 138, N-[3-[[1-(4-methoxybenzoyl)-4-piperidin-yl]oxy]phenyl]-4′-(trifluoromethoxy)[1,1′-biphenyl]-2-carboxamide] are within 1.5-fold of each other in IC50: 241 nM for the first, 221 nM for the second.

Compared with `CCOC(=O)c1ccc(NC(=O)N2CCC(Oc3cccc(NC(=O)c4cccc(C)c4-c4ccc(OC(F)(F)F)cc4)c3)CC2)cc1` [Example 27, ethyl 4-[[[4-[3-[[[6-methyl-4′-(trifluorometh-oxy)[1,1′-biphenyl]-2-yl]carbonyl]amino]-phenoxy]-1-piperidinyl]carbonyl]amino]-benzoate], `Cc1cccc(C(=O)Nc2cccc(OC3CCN(C(=O)Nc4ccc(N(C)C)cc4)CC3)c2)c1-c1ccc(OC(F)(F)F)cc1` [Example 51, N-[4-(dimethylamino)phenyl]-4-[3-[[[6-methyl-4′-(trifluoromethoxy)[1,1′-biphenyl]-2-yl]carbonyl]amino]phenoxy]-1-piperidinecarboxamide] is 2.7-fold lower in IC50: 295 nM for the first, 111 nM for the second. The second is the more potent here.

Compared with `Cc1cccc(C(=O)Nc2cccc(OC3CCN(C(=O)c4ccco4)CC3)c2)c1-c1ccc(OC(F)(F)F)cc1` [Example 111, N-[3-[[1-(2-furanylcarbonyl)-4-piperidinyl]-oxy]phenyl]-6-methyl-4′-(trifluorometh-oxy)[1,1′-biphenyl]-2-carboxamide], `Cc1cccc(C(=O)Nc2cccc(OC3CCN(C(=O)c4ccccc4)CC3)c2)c1-c1ccc(OC(F)(F)F)cc1` [Example 143, N-[3-[(1-benzoyl-4-piperidinyl)oxy]phenyl]-6-methyl-4′-(trifluoromethoxy)[1,1′-biphenyl]-2-carboxamide] is 3.5-fold lower in IC50: 409 nM for the first, 118 nM for the second.

Going from `Cc1cccc(C(=O)Nc2cccc(OC3CCN(Cc4cc5ccccc5o4)CC3)c2)c1-c1ccc(OC(F)(F)F)cc1` [Example 60, N-[3-[[1-(2-benzofuranylmethyl)-4-piperi-dinyl]oxy]phenyl]-6-methyl-4′-(trifluoro-methoxy)-[1,1′-biphenyl]-2-carboxamide] to `Cc1cccc(C(=O)Nc2cccc(OC3CCN(C(=O)NCc4ccccc4)CC3)c2)c1-c1ccc(OC(F)(F)F)cc1` [Example 35, 4-[3-[[[6-methyl-4′-(trifluoromethoxy)[1,1′-biphenyl]-2-yl]carbonyl]amino]phenoxy]-N-(phenylmethyl)-1-piperidinecarbox-amide], the IC50 falls from 240 nM to 120 nM (2-fold). The second is the more potent here.

`Cc1cccc(C(=O)Nc2cccc(OC3CCN(C(=O)Nc4ccccc4OC(F)(F)F)CC3)c2)c1-c1ccc(OC(F)(F)F)cc1` [Example 47, 4-[3-[[[6-methyl-4′-(trifluoromethoxy)[1,1′-biphenyl]-2-yl]carbonyl]amino]phenoxy]-N-(2-(trifluoromethoxy)phenyl]-1-piperi-dinecarboxamide] and `Cc1ccccc1NC(=O)N1CCC(Oc2cccc(NC(=O)c3cccc(C)c3-c3ccc(OC(F)(F)F)cc3)c2)CC1` [Example 62, N-(2-methylphenyl)-4-[3-[[[6-methyl-4′-(trifluoromethoxy)[1,1′-biphenyl]-2-yl]-carbonyl]amino]phenoxy]-1-piperidine-carboxamide] are within 1.5-fold of each other in IC50: 158 nM for the first, 119 nM for the second.

`Cc1cccc(C(=O)Nc2cccc(OC3CCN(C(=O)NC4CCCC4)CC3)c2)c1-c1ccc(OC(F)(F)F)cc1` [Example 57, N-cyclopentyl-4-[3-[[[6-methyl-4′-(trifluoro-methoxy)[1,1′-biphenyl]-2-yl]carbonyl]-amino]phenoxy]-1-piperidinecarboxamide] and `Cc1cccc(C(=O)Nc2cccc(OC3CCN(C(=O)CC(C)C)CC3)c2)c1-c1ccc(OC(F)(F)F)cc1` [Example 129, 6-methyl-N-[3-[[1-(3-methyl-1-oxobutyl)-4-piperidinyl]oxy]phenyl]-4′-(trifluorometh-oxy)[1,1′-biphenyl]-2-carboxamide] are within 1.5-fold of each other in IC50: 187 nM for the first, 136 nM for the second.

Going from `O=C(Nc1cccc(OC2CCN(C(=O)c3ccno3)CC2)c1)c1ccccc1-c1ccc(OC(F)(F)F)cc1` [Example 115, N-[3-[[1-(5-isoxazolylcarbonyl)-4-piperi-dinyl]oxy]phenyl]-4′-(trifluoromethoxy)-[1,1′-biphenyl]-2-carboxamide] to `Cc1cccc(C(=O)Nc2cccc(OC3CCN(C(=O)c4cccnc4)CC3)c2)c1-c1ccc(OC(F)(F)F)cc1` [Example 106, 6-methyl-N-[3-[[1-(3-pyridinylcarbonyl)-4-piperidinyl]oxy]phenyl]-4′-(trifluorometh-oxy)[1,1′-biphenyl]-2-carboxamide], the IC50 falls from 433 nM to 182 nM (2.4-fold). The second is the more potent here.

`COc1ccc(CC(=O)N2CCC(Oc3cccc(NC(=O)c4cccc(C)c4-c4ccc(OC(F)(F)F)cc4)c3)CC2)cc1OC` [Example 105, N-[3-[[1-[2-(3,4-dimethoxyphenyl)-acetyl]-4-piperidinyl]oxy]phenyl]-6-methyl-4′-(trifluoromethoxy)[1,1′-biphenyl]-2-carboxamide] showed an IC50 of 207 nM.
